Experiment in all cases: NCI-60 cell line screen, 48 h
Assay [1] relates to RXF 393 renal.
Assay [2] deals with HOP-92 NSCLC.
Assay [3] deals with OVCAR-8 ovarian.
Assay [4] deals with NCI-H226 lung.
The test system of assay [5] is UACC-257 melanoma.
For assay [6], the system named is IGROV1 ovarian.
In assay [7] the test system is ACHN renal.
Assay [8] relates to NCI-H460 lung.
The subject of assay [9] is KM12 colon.
Assay [10] relates to HL-60(TB) leukemia.

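Protocol summary: plate cells (96-well), add compound at 5 concentrations, incubate 48 h, interpolate endpoints linearly. The concentration for 50% growth inhibition is given as GI50. TGI: concentration producing complete growth inhibition.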 Where only a bound is given, the exact number is not on record here.

As to `COc1ccc(/C=N/NC(=O)NCCNCCO)cc1`, the TGI in [1], in assay [2], in [3], in [4], in assay [5] and in assay [6] was > 100 µM in each case. Moreover, the TGI in assay [7], in assay [8], in assay [9] and in assay [10] was > 100 µM throughout.
For the molecule `Cc1c2cc[n+](C)cc2c(C)c2c1[nH]c1ccc(OC(C)(C)C)cc12`, the TGI in [1], in [2], in assay [3], in [4], in assay [5] and in assay [6] was > 100 µM each time. In addition, the TGI in [7], in assay [8], in [9] and in assay [10] was > 100 µM in each case.
Consider `O=[N+]([O-])c1cc(-c2ccc([As](=O)(O)O)cc2)ccc1[As](=O)(O)O`, for which the TGI in assay [1], in assay [2], in assay [3], in assay [4], in assay [5] and in [6] was > 100 µM in each case. In addition, the TGI in assay [7], in [8], in assay [9] and in [10] was > 100 µM each time.
As to `CCc1c[n+]2c(cc1C1=CN3c4ccccc4[C@]45CCN6C/C(=C/CO)[C@H](C[C@H]64)[C@@H]([C@@H]1O)[C@H]35)-c1[nH]c3ccccc3c1CC2`, the TGI in [1], in [2], in [3], in [4], in [5] and in assay [6] was > 50 µM in each case. Further, the TGI in assay [7], in assay [8], in assay [9] and in [10] was > 50 µM each time.
On to `CCOC(=O)/C(C(N)=O)=C(/O)c1cnccn1`, for which the TGI in assay [1], in [2], in assay [3], in assay [4], in [5] and in assay [6] was > 100 µM each time. Moreover, the TGI in assay [7], in assay [8], in assay [9] and in assay [10] was > 100 µM in each case.
On to `COc1ccc(C2=Nn3c(nc4sc5c(c4c3=O)CCCC5)SC2)cc1`, for which the TGI in assay [1], in [2], in assay [3], in [4], in assay [5] and in assay [6] was > 100 µM in each case. Moreover, the TGI in [7], in [8], in assay [9] and in assay [10] was > 100 µM in each case.
On to `CCN1CC2(CO)CCC(OC)C34C5CC6C(OC)CC(O)(C5C6OC)C(O)(C(OC)C23)C14` (configuration not stated), for which the TGI in assay [1], in assay [2], in assay [3], in [4], in assay [5] and in assay [6] was > 375 µM each time. For the same molecule, the TGI in [8], in assay [9] and in assay [10] was > 375 µM each time.
`Cc1[nH]c(-c2ccccc2)c(O)c1C(=O)OC1CC(C)CCC1C(C)C` (configuration not stated): the TGI is 24.3 µM in assay [1]; 32.7 µM in assay [2]; 29.9 µM in [3]; 30.9 µM in [4]; 29.5 µM in assay [5]; 29 µM in assay [6]. Also, the TGI was determined as 30 µM in assay [7], 28.6 µM in assay [8], 27.9 µM in assay [9] and 42.6 µM in assay [10].
Regarding `CCN(CC)CCNC(=O)C1COc2ccc(-c3cc(=O)c4ccccc4o3)cc2O1` (configuration not stated), the TGI was 35.4 µM in assay [1]; 53.9 µM in assay [2]; 33.4 µM in assay [3]; 31.3 µM in assay [4]; 32 µM in assay [5]; 63.5 µM in assay [6]. For the same molecule, the TGI in [8] is 36.2 µM; in assay [9], 35.4 µM; in assay [10], 30.8 µM.
`O=C(/C=C/c1cc2ccccc2[nH]c1=O)c1ccc(O)cc1`: the GI50 in assay [1] was 1.65 µM; in [2], 3.26 µM; in [3], 3.23 µM; in [4] it was 3.29 µM; in assay [5] it was 3.87 µM; in assay [6], 4.35 µM. Moreover, the GI50 in [7] is 2.67 µM; in assay [8], 2.39 µM; in [9], 1.89 µM; in assay [10], 2.66 µM. Also, the TGI in assay [1] was determined as 3.23 µM; in [2] it was 23.2 µM; in [3] it was 21.1 µM; in assay [4], 10.9 µM; in [5], 16 µM; in [6], 45.1 µM. The TGI in [7] amounted to 8.86 µM; in [8] it was 6.87 µM; in assay [9] it was 4.5 µM; in assay [10], 6.86 µM.
`CCOC1=C2N=C(C(CC)c3ccc(F)cc3)N=C2C(=O)c2ccccc21` (configuration not stated): the TGI in [1] was 39.5 µM; in assay [2], 66.3 µM; in [3], > 100 µM; in assay [4], 41.6 µM; in assay [5] it was 49 µM; in assay [6], > 100 µM. For the same molecule, the TGI in assay [7] was > 81.6 µM; in assay [8] it was > 79.8 µM; in [9], > 56.5 µM; in assay [10] it was > 73.7 µM.
With `Nc1ccc2ncc(NCc3ccc(F)cc3)nc2c1`, the TGI in assay [1], in [2], in [3], in assay [4], in [5] and in assay [7] was > 100 µM throughout. Besides, the TGI in [8], in assay [9] and in assay [10] was > 100 µM throughout.
In the case of `O=C(NC1CCCCC1)N1CCNC1=S`, the TGI in assay [1], in assay [2], in assay [3], in assay [4], in assay [5] and in assay [6] was > 100 µM in each case. For the same molecule, the TGI in assay [7], in [8], in [9] and in assay [10] was > 100 µM in each case.

These data come from PubChem BioAssay (NCI).
